Among the test systems are OVCAR-3 ovarian; NCI-H23 lung; MCF7 breast; T-47D breast; SW-620 colon; K-562 leukemia; PC-3 prostate; LOX IMVI melanoma; SK-MEL-28 melanoma; IGROV1 ovarian.
Assay in all cases: NCI-60 cell line screen, 48 h

The structures appear in SMILES notation.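 Cultured in 96-well plates, cells were exposed to test compound for 48 hours across five concentrations. TGI marks complete inhibition of growth.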

Consider `N#CCCN(C(=O)Nc1ccc(NC(=O)N(CCC#N)c2ccccc2)cc1)c1ccccc1`, for which the TGI with OVCAR-3 ovarian, in the assay with NCI-H23 lung, in the assay with MCF7 breast, in the assay with T-47D breast, with SW-620 colon and in the assay with K-562 leukemia was above 100 µM each time. Moreover, the TGI in the assay with PC-3 prostate, with LOX IMVI melanoma, in the assay on SK-MEL-28 melanoma and in the assay with IGROV1 ovarian was above 100 µM in each case.
For `COc1ccc(C(CC(=O)c2cccs2)C(=O)c2ccc3c(c2)OCO3)cc1` (stereo not given), the TGI in the assay on NCI-H23 lung, in the assay on MCF7 breast, in the assay with T-47D breast, in the assay with SW-620 colon, in the assay with K-562 leukemia and in the assay on PC-3 prostate was above 100 µM each time. The TGI with LOX IMVI melanoma, in the assay with SK-MEL-28 melanoma and with IGROV1 ovarian was above 100 µM in each case.
On to `O=C(O)COc1c(Cl)cc(Cl)c(C(c2c(Cl)cc(Cl)c(OCC(=O)O)c2Cl)C(Cl)(Cl)Cl)c1Cl`, for which the TGI in the assay with NCI-H23 lung is 62.3 µM; in the assay with MCF7 breast, above 100 µM; with T-47D breast, above 100 µM; in the assay with SW-620 colon, above 100 µM; in the assay on K-562 leukemia, above 100 µM; with PC-3 prostate, above 100 µM. For the same compound, the TGI in the assay with LOX IMVI melanoma, in the assay with SK-MEL-28 melanoma and with IGROV1 ovarian was above 100 µM in each case.
On to `O=C(O)c1ccccc1Sc1ccc(C=C2NC(=S)N(c3ccccc3)C2=O)s1`, for which the TGI with OVCAR-3 ovarian, with NCI-H23 lung, with MCF7 breast, with T-47D breast, in the assay with SW-620 colon and in the assay with K-562 leukemia was above 100 µM throughout. For the same compound, the TGI with PC-3 prostate, with LOX IMVI melanoma, in the assay on SK-MEL-28 melanoma and in the assay on IGROV1 ovarian was above 100 µM throughout.
In the case of `Cc1ccc(NC(c2ccccc2)P(=O)(c2ccccc2)c2ccccc2)cc1` (stereo not given), the TGI in the assay with OVCAR-3 ovarian, with NCI-H23 lung, with MCF7 breast, with T-47D breast, with SW-620 colon and with K-562 leukemia was above 100 µM in each case. Further, the TGI in the assay with PC-3 prostate, with LOX IMVI melanoma, with SK-MEL-28 melanoma and with IGROV1 ovarian was above 100 µM each time.
Take `CC(NC(CC12CC3CC(CC(C3)C1)C2)C(N)=O)c1ccccc1` (stereo not given): the TGI is 26.6 µM in the assay with OVCAR-3 ovarian; above 100 µM in the assay with MCF7 breast; above 100 µM with T-47D breast; above 100 µM in the assay with SW-620 colon; 41.4 µM in the assay with K-562 leukemia; above 100 µM in the assay with PC-3 prostate. In addition, the TGI is 30.7 µM in the assay with LOX IMVI melanoma, 40.4 µM in the assay with SK-MEL-28 melanoma and above 100 µM in the assay with IGROV1 ovarian.
In the case of `c1ccc(-c2cc(-c3ccccc3)nc(-c3ccncc3)c2)cc1`, the TGI in the assay on OVCAR-3 ovarian, in the assay on NCI-H23 lung, with MCF7 breast, in the assay with T-47D breast, in the assay with SW-620 colon and with K-562 leukemia was above 100 µM throughout. The TGI in the assay on PC-3 prostate, in the assay on LOX IMVI melanoma, in the assay on SK-MEL-28 melanoma and in the assay on IGROV1 ovarian was above 100 µM each time.
In the case of `O=C1N[C@@H]([C@H]2CC[C@H](Cl)CN2)C(=O)N[C@H]1[C@H]1CC[C@H](Cl)CN1`, the TGI stood at 7.61 µM in the assay with OVCAR-3 ovarian; 8.76 µM in the assay on NCI-H23 lung; 7.25 µM in the assay on MCF7 breast; 56.1 µM with T-47D breast; 29.4 µM in the assay on SW-620 colon; 227 µM with K-562 leukemia. Further, the TGI with PC-3 prostate is 18 µM; in the assay with LOX IMVI melanoma it was 2.6 µM; with SK-MEL-28 melanoma it was 31.1 µM; with IGROV1 ovarian, 37.6 µM.
`CN(CCNC(=O)c1nn(C)c2c1Cc1ccccc1-2)CCNC(=O)c1nn(C)c2c1Cc1ccccc1-2`: the TGI with OVCAR-3 ovarian is 29.8 µM; in the assay on NCI-H23 lung it was 32.3 µM; in the assay with MCF7 breast, 26 µM; in the assay with T-47D breast, 91.5 µM; in the assay with SW-620 colon it was 38.9 µM; in the assay with K-562 leukemia, 29.6 µM. The TGI with PC-3 prostate is 47.6 µM; with LOX IMVI melanoma, 34.8 µM; in the assay with SK-MEL-28 melanoma, 30.9 µM; in the assay with IGROV1 ovarian, 27.5 µM.
As for `CC(=O)CC(O)(C(F)(F)Cl)C(F)(Cl)Cl` (stereo not given), the TGI in the assay with OVCAR-3 ovarian, in the assay with NCI-H23 lung, in the assay with MCF7 breast, in the assay with T-47D breast, with SW-620 colon and in the assay with K-562 leukemia was above 10 µM in each case. Moreover, the TGI in the assay on PC-3 prostate, in the assay on LOX IMVI melanoma, with SK-MEL-28 melanoma and in the assay with IGROV1 ovarian was above 10 µM each time.
As to `C[N+]1(CC[N+]2(C)CCCC2c2cccnc2)CCCC1c1cccnc1` (stereo not given), the TGI in the assay with OVCAR-3 ovarian, with NCI-H23 lung, in the assay with MCF7 breast, in the assay on T-47D breast, with SW-620 colon and in the assay on K-562 leukemia was above 100 µM each time. In addition, the TGI in the assay on PC-3 prostate, with LOX IMVI melanoma, with SK-MEL-28 melanoma and in the assay on IGROV1 ovarian was above 100 µM throughout.
With `CCn1c(=O)c2nc(SC)sc2n(-c2ccccc2)c1=S`, the TGI in the assay with OVCAR-3 ovarian is above 100 µM; in the assay with NCI-H23 lung it was above 100 µM; in the assay on MCF7 breast, above 100 µM; in the assay on T-47D breast, above 100 µM; with SW-620 colon it was above 100 µM; in the assay with K-562 leukemia, 55.1 µM. Further, the TGI in the assay on PC-3 prostate, with LOX IMVI melanoma, in the assay on SK-MEL-28 melanoma and in the assay with IGROV1 ovarian was above 100 µM in each case.
On to `Clc1ccc(Cc2nc3cc(Cl)c(Cl)cc3n2CC2CCCN3CCCCC23)cc1` (stereo not given), for which the TGI is 28.5 µM in the assay on OVCAR-3 ovarian; 28.3 µM in the assay with MCF7 breast; 64.6 µM with T-47D breast; 31.3 µM in the assay on SW-620 colon; above 100 µM with K-562 leukemia; 21.1 µM in the assay on PC-3 prostate. For the same compound, the TGI with LOX IMVI melanoma was determined as 19.4 µM; in the assay with SK-MEL-28 melanoma it was 20.8 µM; in the assay with IGROV1 ovarian it was 21 µM.
For the compound `COc1ccc(Cl)cc1NC(=O)O/N=C(\Cl)C(C)C`, the TGI was 18.7 µM in the assay on OVCAR-3 ovarian; 47.7 µM in the assay on NCI-H23 lung; 38.6 µM in the assay on MCF7 breast; 16.8 µM with T-47D breast; 7.59 µM with K-562 leukemia; 32.3 µM in the assay with PC-3 prostate. Moreover, the TGI in the assay with LOX IMVI melanoma turned out to be 5.06 µM; in the assay with SK-MEL-28 melanoma it was 42.9 µM; with IGROV1 ovarian, 27.1 µM.
